Data: patent publication US20100247485A1, “FORMULATIONS AND DEVICES FOR […] TO […] MICR[…] ARTHOPODS” (MEVLABS, INC., priority 2007, published 2010)

Test system: Anopheles mosquitoe species
Test: Lethality of drug to Anopheles mosquitoes
Conditions: 7 μg/ml (estimated ED 50 of Pyremethamine)

Structure (SMILES): CCc1nc(N)nc(N)c1-c1ccc(Cl)cc1 [Pyremethamine]
- lethality to mosquitoes at the estimated ED50: not lethal
